14 molecules from PubChem BioAssay (NCI) can be followed below.

Some test systems named below: HT29 colon; UACC-62 melanoma; SNB-19 CNS; NCI-H23 lung; K-562 leukemia; SK-MEL-2 melanoma; A549 NSCLC; COLO 205 colon; KM12 colon; MALME-3M melanoma.
Assay in all cases: NCI anticancer screen, dose series, 48 h

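Tested at 5 concentrations; 48 h exposure; 96-well plates; endpoints linearly interpolated, else capped at highest concentration. The concentration for 50% growth inhibition is given as GI50. TGI: concentration producing complete growth inhibition.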

On to `O=C(/C=C/c1ccc(Cl)c(Cl)c1)c1ccc2ccccc2c1`, for which the TGI with HT29 colon, with UACC-62 melanoma, in the test with SNB-19 CNS, in the test on NCI-H23 lung, with K-562 leukemia and in the test on SK-MEL-2 melanoma was over 100 µM in each case. The TGI with A549 NSCLC is over 100 µM; in the test with COLO 205 colon, 28.7 µM; in the test on KM12 colon, over 100 µM; with MALME-3M melanoma, over 100 µM.
For the molecule `O=c1cc(NCC(O)CN2CCCC2)n(Cc2ccccc2)c(=O)n1Cc1ccccc1` (stereo not given), the GI50 in the test on HT29 colon was 20 µM; in the test with UACC-62 melanoma it was 20.9 µM; with SNB-19 CNS, over 100 µM; in the test with NCI-H23 lung it was 92 µM; with K-562 leukemia, 25.2 µM; with SK-MEL-2 melanoma, over 100 µM. Further, the GI50 with A549 NSCLC is over 100 µM; in the test on COLO 205 colon, 19.3 µM; in the test on KM12 colon, 18.5 µM; with MALME-3M melanoma, 22.6 µM. For the same molecule, the TGI in the test on HT29 colon was 49 µM; in the test on UACC-62 melanoma, 47.3 µM; with SNB-19 CNS, over 100 µM; in the test on NCI-H23 lung it was over 100 µM; in the test with K-562 leukemia it was 60.5 µM; with SK-MEL-2 melanoma, over 100 µM. Besides, the TGI in the test with A549 NSCLC is over 100 µM; in the test on COLO 205 colon, 40.4 µM; in the test with KM12 colon it was 36.5 µM; with MALME-3M melanoma, 61.7 µM.
Regarding `CCOC(=O)C1SC(=Nc2ccc(C)c(C)c2)N=C1C` (stereo not given), the TGI with HT29 colon, with UACC-62 melanoma, in the test with SNB-19 CNS, with NCI-H23 lung, with K-562 leukemia and in the test on SK-MEL-2 melanoma was over 100 µM each time. Besides, the TGI in the test on A549 NSCLC, in the test on COLO 205 colon, with KM12 colon and in the test with MALME-3M melanoma was over 100 µM in each case.
With `CC1=[N+]([O-])c2ccccc2C(=O)C1=O`, the TGI with HT29 colon, in the test with UACC-62 melanoma, with SNB-19 CNS, in the test with NCI-H23 lung, in the test with K-562 leukemia and in the test with SK-MEL-2 melanoma was over 100 µM throughout. Also, the TGI in the test with A549 NSCLC, in the test on COLO 205 colon, in the test with KM12 colon and in the test on MALME-3M melanoma was over 100 µM each time.
For `CC1=C(/C=C/Cl)CC(Cl)C(C)(Cl)C1` (stereo not given), the TGI in the test on HT29 colon, with UACC-62 melanoma, with SNB-19 CNS, in the test with NCI-H23 lung, in the test on K-562 leukemia and with SK-MEL-2 melanoma was over 100 µM throughout. For the same molecule, the TGI with A549 NSCLC, in the test with COLO 205 colon, in the test on KM12 colon and in the test with MALME-3M melanoma was over 100 µM each time.
As for `CCc1nc2cc(F)c(/C=C/C(=O)NO)cc2c(=O)n1CCc1ccccc1`, the GI50 in the test on HT29 colon was 0.343 µM; in the test with UACC-62 melanoma it was 0.235 µM; in the test with SNB-19 CNS it was 0.46 µM; with NCI-H23 lung, 0.375 µM; with K-562 leukemia it was 0.303 µM; in the test on SK-MEL-2 melanoma it was 0.293 µM. For the same molecule, the GI50 in the test on A549 NSCLC is 0.335 µM; in the test on COLO 205 colon, 0.221 µM; in the test with KM12 colon it was 0.412 µM; in the test on MALME-3M melanoma, 0.216 µM. The TGI in the test with HT29 colon is 12.1 µM; in the test on UACC-62 melanoma it was 0.699 µM; with SNB-19 CNS, 17 µM; in the test on NCI-H23 lung, 7.07 µM; with K-562 leukemia, over 100 µM; with SK-MEL-2 melanoma, 0.863 µM. Further, the TGI in the test with A549 NSCLC turned out to be 2.67 µM; in the test with COLO 205 colon it was 0.537 µM; in the test on KM12 colon it was 15 µM; in the test with MALME-3M melanoma, 0.907 µM.
`COc1ccc(C2=C(Cl)c3cc(OC)c(OC)cc3C2Cl)cc1` (stereo not given): the TGI in the test with HT29 colon is 28.8 µM; in the test on UACC-62 melanoma, 31.4 µM; in the test on SNB-19 CNS, 39.5 µM; in the test on NCI-H23 lung, over 54.5 µM; with K-562 leukemia, over 53.1 µM; with SK-MEL-2 melanoma it was 26.3 µM. Moreover, the TGI in the test on A549 NSCLC turned out to be 36.5 µM; with COLO 205 colon, 33.4 µM; in the test on KM12 colon, 26.4 µM; in the test on MALME-3M melanoma, 46.9 µM.
As for `COCC[C@H]1CCC/C=C/[C@@H]2C[C@H](O)C[C@H]2[C@H](O)/C=C/C(=O)O1`, the GI50 with HT29 colon was 0.0351 µM; in the test with UACC-62 melanoma, 0.0425 µM; in the test on SNB-19 CNS it was 0.191 µM; in the test with NCI-H23 lung, 0.0858 µM; in the test with K-562 leukemia it was 0.313 µM; in the test on SK-MEL-2 melanoma, 0.177 µM. Besides, the GI50 in the test with A549 NSCLC was 0.113 µM; in the test on COLO 205 colon, 0.0227 µM; with KM12 colon it was 0.034 µM; in the test on MALME-3M melanoma, 0.0344 µM. Further, the TGI in the test with HT29 colon is 0.227 µM; in the test on UACC-62 melanoma, over 100 µM; in the test with SNB-19 CNS it was over 100 µM; in the test with NCI-H23 lung, 0.858 µM; in the test with K-562 leukemia, over 100 µM; in the test on SK-MEL-2 melanoma, 0.636 µM. For the same molecule, the TGI is over 100 µM in the test with A549 NSCLC, 0.0472 µM with COLO 205 colon, 0.118 µM with KM12 colon and 0.228 µM in the test with MALME-3M melanoma.
For `CCOC(=O)C1CCN(S(=O)(=O)/N=C2/NC(=O)NC2=C(Cl)Cl)CC1`, the GI50 in the test with HT29 colon is 2.2 µM; in the test with UACC-62 melanoma, 1.71 µM; with SNB-19 CNS, 1.84 µM; with NCI-H23 lung it was 2.12 µM; in the test on K-562 leukemia it was 1.82 µM; in the test with SK-MEL-2 melanoma, 2.37 µM. For the same molecule, the GI50 with A549 NSCLC is 4.82 µM; in the test on COLO 205 colon it was 2.08 µM; in the test on KM12 colon it was 0.254 µM; in the test on MALME-3M melanoma, 1.7 µM. The TGI with HT29 colon was found to be 4.3 µM; in the test on UACC-62 melanoma, 3.27 µM; with SNB-19 CNS, 5.11 µM; in the test on NCI-H23 lung, 4.38 µM; in the test with K-562 leukemia it was 5.99 µM; in the test with SK-MEL-2 melanoma, 7.5 µM. Moreover, the TGI in the test with A549 NSCLC was found to be 17.7 µM; in the test with COLO 205 colon it was 3.83 µM; with KM12 colon it was 10.5 µM; in the test on MALME-3M melanoma, 3.48 µM.
`O=C(Nc1n[nH]c2cc(-c3ccccc3)ccc12)C1CC1`: the GI50 with HT29 colon was 2.31 µM; in the test on UACC-62 melanoma, over 25 µM; with SNB-19 CNS, over 19.8 µM; with NCI-H23 lung, 16.8 µM; in the test with K-562 leukemia, 1.42 µM; in the test with SK-MEL-2 melanoma it was over 25 µM. For the same molecule, the GI50 with A549 NSCLC is 11.6 µM; in the test on COLO 205 colon, 12.4 µM; in the test with KM12 colon it was 2.11 µM; with MALME-3M melanoma it was over 17.7 µM. The TGI in the test with HT29 colon, in the test with UACC-62 melanoma, in the test with SNB-19 CNS, with NCI-H23 lung, in the test with K-562 leukemia and with SK-MEL-2 melanoma was over 25 µM throughout. In addition, the TGI in the test with A549 NSCLC, with COLO 205 colon, with KM12 colon and in the test with MALME-3M melanoma was over 25 µM each time.
Consider `CC(=O)O[C@H]1CCC2[C@@H]3CC[C@]4(C)CC(=O)C=C[C@]4(C)C3CC[C@@]21C` (stereo not given in full), for which the TGI with HT29 colon was 32.8 µM; in the test on UACC-62 melanoma, 30.4 µM; with SNB-19 CNS, over 100 µM; in the test with NCI-H23 lung, 53.8 µM; in the test with K-562 leukemia, over 100 µM; with SK-MEL-2 melanoma, 38.7 µM. Further, the TGI in the test on A549 NSCLC was 37.9 µM; in the test with COLO 205 colon, 31.3 µM; in the test with KM12 colon, 44.3 µM; in the test with MALME-3M melanoma, 34.3 µM.
In the case of `COc1ccc2c3c([nH]c2c1[N+](=O)[O-])C(C)N(C)CC3` (stereo not given), the TGI in the test on HT29 colon was 42.6 µM; with UACC-62 melanoma it was over 100 µM; with SNB-19 CNS, over 100 µM; with NCI-H23 lung it was over 100 µM; in the test on K-562 leukemia it was 40.1 µM; with SK-MEL-2 melanoma it was over 100 µM. In addition, the TGI with A549 NSCLC, with COLO 205 colon, in the test on KM12 colon and in the test on MALME-3M melanoma was over 100 µM in each case.
`CCc1nc(N)nc(N)c1-c1ccc(NC)c([N+](=O)[O-])c1`: the TGI is 33.7 µM in the test on HT29 colon; over 100 µM with UACC-62 melanoma; over 80.4 µM with SNB-19 CNS; over 100 µM with NCI-H23 lung; over 25.8 µM in the test on K-562 leukemia; over 92.5 µM in the test with SK-MEL-2 melanoma. Further, the TGI was over 100 µM in the test on A549 NSCLC, 34.4 µM with COLO 205 colon, over 100 µM with KM12 colon and over 100 µM in the test with MALME-3M melanoma.
As for `N#Cc1cc(-c2cc3ccccc3o2)oc1N`, the GI50 in the test on HT29 colon was 3.35 µM; in the test on UACC-62 melanoma it was 3.79 µM; with SNB-19 CNS, 4.07 µM; in the test on NCI-H23 lung, 3.9 µM; with K-562 leukemia, 3.58 µM; with SK-MEL-2 melanoma, 1.29 µM. Besides, the GI50 in the test on A549 NSCLC was 3.7 µM; in the test with COLO 205 colon it was 2.06 µM; with KM12 colon, 3.58 µM; with MALME-3M melanoma it was 2.45 µM. Also, the TGI was 11.3 µM with HT29 colon; 17.2 µM in the test on UACC-62 melanoma; 31.7 µM with SNB-19 CNS; 22.8 µM in the test on NCI-H23 lung; over 100 µM in the test on K-562 leukemia; 4.49 µM with SK-MEL-2 melanoma. For the same molecule, the TGI is over 100 µM in the test on A549 NSCLC, 4.74 µM in the test with COLO 205 colon, 11.8 µM with KM12 colon and 6.98 µM in the test with MALME-3M melanoma.
